Assay [1] deals with T1, Bcl-xL (Homo sapiens, UniProt Q07817).
T1 construct: The gene for the first 209 amino acids of Bcl-xL; made in house; host or cells: E. coli BL21(DE3), pET24a vector
In words: Equilibrium immunoassays (ELISA and AMMP data combined), Kd of ligands for Bcl-xL. It counts as binding. As to conditions: for Kd: Kd Determined Using Known [L]0, Monovalent equilibrium model, ELISA and AMMP data; for Kd / Ratio of Fit [L]0 to Known [L]0: mean ± standard error; for Ratio of Fit [L]0 to Known [L]0: simultaneous fit of Kd and [L]0. The procedure:
Sample Preparation. A set of serially diluted Bcl-xL standards, at 2× the desired concentration, were made in sample buffer. For each ligand to be tested (such as peptide ligands), a set of dilutions at 2× the desired concentration was also prepared. The Bcl-xL samples were either mixed 1:1 with sample buffer (standards) or ligands (samples), and allowed to incubate at room temperature for 6 days. After the incubation, the standards and samples were analyzed using ELISA or the ViBE BioAnalyzer (FIG. 1).
ELISA Assays. ELISA plates were incubated overnight at 4° C. with 1.5 nmol of streptavidin (for D1 or Bcl-xL capture ligands) or 54H6 mAb in 1×PBS. Plates were washed 3× with wash buffer (1×PBS+0.1% (v/v) Tween-20) and blocked with 1×PBS+5% (w/v) BSA for two hours. For the D1 or Bcl-xL capture ligands, 100 μL of a 30 nM solution of the reagents was added to wells and incubated for 1 hour. This step was skipped for the 54H6 mAb capture ligand (already immobilized on the plate). After the capture ligand incubation, 100 μL of sample or standards were added in each well, and incubated for 1 hour at room temperature. Plates were washed, incubated with HRP-conjugated probe antibody (such as anti-HIS tag antibody) in sample buffer for 1 hour, washed, and incubated with TMB substrate (Thermo Scientific). Reactions were stopped after approximately 10 minutes with 2 M sulfuric acid, and the absorbance at 450 nm was measured via a plate reader (Molecular Devices). The ligand of interest, capture ligand, target protein, and probe ligand used in example ELISA assays performed are highlighted in the table below.
AMMP Assays. For the AMMP assays, 90 μL of each sample or standards was incubated with 30 μL of magnetic beads (12 μg of beads/mL) and fluorescein-labeled antibody (8 nM) in sample buffer for 1 hour. The experiment's run buffer was 1×PBS+1% (v/v) Tween-20+1% (v/v) heat-treated FBS (Invitrogen; FBS was heat treated for 15 minutes at 65° C. and filtered). BioScale Universal Detection Cartridges were used in performing all of the assays. The device was used per the manufacturer's instructions. The ligand of interest, capture ligand, target protein, and probe ligand used in example AMMP assays performed are highlighted in the table below.
Monovalent and Divalent Analysis. The data for both sets of target concentrations were simultaneously fit for Kd (in the Kd only fit) or Kd and Mo. The data was fitted to the equilibrium model using the lowest absolute deviation method, by varying either only Kd or both Kd and [L]0 simultaneously. The monovalent assay fitting was done by Excel Solver (GRG Non-Lin method) using a set of five initial values. The set of values which provided the lowest error after the fitting were chosen as the final values. For the divalent assays, the fitting was performed by MATLAB's fminsearch function and a set of 10 initial values for Kd1, Kd2, and [L]0. […] For the divalent reverse assay, an extra parameter, Cf, was also determined by fitting (FIG. 7 Reverse Assay).
Enzymatic Kd Calculation Assay. The Kd values of ligands of interest were determined using a protocol modified from Friguet et al., Journal of immunological methods, 77, 305-319 (1985). The samples were prepared and analyzed by ELISA assay in a similar process as described above. The OD450 for the standards and their concentration values were fit to a four parameter logistic curve (standard curve). The concentration of the free Bcl-xL in solution (responsible for the signal) for each sample was calculated using the standard curve, and converted into percent of Bcl-xL bound by ligand in solution.
For orientation: In an ELISA, binding on a coated surface is turned into a signal by an enzyme label.

Assay [2] concerns the target T1, Bcl-xL. In words: Radiolabeled off-rate assay on immobilized Bcl-xL. It counts as binding. An excerpt:
Radiolabeled Off-Rate Assay. The DNA sequences coding for the peptides were ordered from Integrated DNA Technologies (IDT). Each DNA construct contained a T7 RNA Polymerase promoter, and a 5′ deletion mutant of the Tobacco Mosaic Virus (ΔTMV). The C-terminal portion of the peptides were elongated with a flexible serine-glycine linker (six amino acids long) and an HA tag. After gel purification using urea-PAGE, the DNA sequences were PCR amplified using Taq polymerase and in vitro transcribed into mRNA using T7 RNA polymerase. After transcription, the mRNA was urea-PAGE purified and resuspended in deionized water to a final concentration of 30 μM.
The samples were in vitro translated at 30° C. for 1 hour in the translation solution—150 mM KOAc, 750 μM MgCl2, 2 μM mRNA, 1× translation mix (20 mM Hepes-KOH pH 7.6, 100 mM creatine phosphate, 2 mM DTT, and 312.5 μM of each amino acid excluding methionine), ^35S-labeled methionine (Perkin Elmer; 20 μCi for each 25 μL of translation), and 60% (v/v) rabbit reticulocyte lysate. Radiolabeled peptides were purified using magnetic HA beads (Life Technologies) and eluted with 100 μL, 50 mM NaOH, then immediately neutralized with 20 μL of 1 M Tris-HCl, pH 8.0.
The radiolabeled peptides were allowed to bind to 30 pmol immobilized Bcl-xL for 1 hour in sample buffer (1×PBS, 1% (w/v) BSA, 0.1% (v/v) Tween 20, 10 μM biotin). The beads were magnetically separated, and washed 5× with sample buffer. The beads were resuspended in 1 mL of sample buffer containing 3 μM non-biotinylated Bcl-xL (˜100× molar excess relative to immobilized biotinylated Bcl-xL). At various time points, 100 μL of slurry was removed and the beads were magnetically separated and washed. The percent remaining at each time point was determined by dividing the counts per minute (cpm) on beads by total cpm (beads+washes). The peptide off-rate was determined by an exponential fit of the Percent counts on beads vs. Time (s).
The peptide ligands were made using a C-terminal HA tag, and affinity purified.

Where [3] appears, read: in vitro translated radiolabeled peptides with C-terminal HA tag, read-out: Peptide koff.
The mark [4] stands for this setting: radiolabeled peptide-mRNA fusions bound to immobilized Bcl-xL, read-out: koff.

Like-named read-outs stand apart in the source and are kept apart here. Peptide text beside a SMILES is read from it. * marks the point of attachment. Biotin = O=C1N[C@H]2[C@H](CS[C@H]2CCCCC(=O)*)N1

T1 sequence (Q07817 1-209 limits assumed): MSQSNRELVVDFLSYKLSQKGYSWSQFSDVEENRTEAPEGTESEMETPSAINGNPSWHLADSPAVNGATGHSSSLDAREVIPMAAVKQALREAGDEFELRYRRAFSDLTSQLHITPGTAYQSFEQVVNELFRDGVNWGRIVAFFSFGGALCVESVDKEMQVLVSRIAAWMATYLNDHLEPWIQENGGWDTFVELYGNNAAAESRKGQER

Broadly, the kon is the rate constant with which the complex forms. Usually Kd stands for a measure of binding affinity in units of concentration. As usually defined, the koff is a measure of how fast the partners let go of each other. As for `CC[C@H](C)[C@H](NC(=O)[C@H](C)NC(=O)[C@@H](NC(=O)[C@@H](N)CCSC)[C@@H](C)CC)C(=O)N[C@@H](CO)C(=O)N[C@H](C(=O)N[C@H](C(=O)N[C@@H](Cc1ccc(O)cc1)C(=O)N[C@@H](CC(N)=O)C(=O)N[C@@H](Cc1ccc(O)cc1)C(=O)N[C@@H](CCCCN)C(=O)N[C@@H](CCCCN)C(=O)N[C@@H](C)C(=O)N[C@@H](C)C(=O)N[C@@H](CC(=O)O)C(=O)N[C@@H](Cc1c[nH]cn1)C(=O)N[C@@H](Cc1ccc(O)cc1)C(=O)N[C@@H](C)C(=O)N[C@@H](CCSC)C(=O)N[C@H](C(=O)N[C@@H](CCCCN)C(=O)NCC(=O)N[C@@H](CO)C(=O)N[C@@H](CCCCNC(=O)CCCC[C@@H]1SC[C@@H]2NC(=O)N[C@@H]21)C(N)=O)[C@@H](C)O)[C@@H](C)CC)[C@@H](C)O` [D1] (H-MIAISTIYNYKKAADHYAMTKGSK(Biotin)-NH2), at Bcl-xL [1], the kon was 240000 M⁻¹ s⁻¹, the Kd amounted to 0.0085 ± 0.002 nM and the “Ratio of Fit [L]0 to Known [L]0” value is 109% ± 7%. For the same compound, on Bcl-xL [2] (setting [3]), the koff was 2e-06 s⁻¹. Also, the koff at Bcl-xL [2] (setting [4]) is 2e-06 s⁻¹.

As for `CC[C@H](C)[C@H](NC(=O)[C@@H](NC(=O)[C@@H](NC(=O)[C@@H](NC(=O)[C@H](CCC(=O)O)NC(=O)[C@@H](NC(=O)[C@@H](N)CCSC)[C@@H](C)CC)[C@@H](C)O)[C@@H](C)CC)[C@@H](C)O)C(=O)N[C@@H](Cc1ccc(O)cc1)C(=O)N[C@@H](CC(N)=O)C(=O)N[C@@H](Cc1ccc(O)cc1)C(=O)N[C@@H](CCCCN)C(=O)N[C@@H](CCCCN)C(=O)N[C@@H](C)C(=O)N[C@@H](C)C(=O)N[C@@H](CC(=O)O)C(=O)N[C@@H](Cc1c[nH]cn1)C(=O)N[C@@H](Cc1ccccc1)C(=O)N[C@@H](CO)C(=O)N[C@@H](CCSC)C(=O)N[C@@H](CO)C(=O)N[C@@H](CCSC)C(=O)NCC(=O)N[C@@H](CO)C(=O)N[C@@H](CCCCNC(=O)CCCC[C@@H]1SC[C@@H]2NC(=O)N[C@@H]21)C(N)=O` [E1] (H-MIETITIYNYKKAADHFSMSMGSK(Biotin)-NH2), on Bcl-xL [1], the kon was 310000 M⁻¹ s⁻¹, the Kd turned out to be 0.039 ± 0.006 nM and the “Ratio of Fit [L]0 to Known [L]0” value was 88% ± 10%. Moreover, on Bcl-xL [2] (setting [3]), the dissociation rate constant (koff) was 7.4e-06 s⁻¹. The koff at Bcl-xL [2] (setting [4]) is 1.2e-05 s⁻¹.

Values taken from patent US20180172683A1, “METHODS FOR ANALYZING THE INTERACTION BETWEEN A TARGET PROTEIN AND A LIGAND” (UNIVERSITY OF SOUTHERN CALIFORNIA, priority 2015, published 2018).
